In PMC3177945 (Bioorganic & medicinal chemistry letters, 2010):

Target: AmpC β-lactamase (Escherichia coli, UniProt P00811)
Experiment: biochemical
Assay type: biochemical

Sequence of AmpC β-lactamase (P00811 20-377): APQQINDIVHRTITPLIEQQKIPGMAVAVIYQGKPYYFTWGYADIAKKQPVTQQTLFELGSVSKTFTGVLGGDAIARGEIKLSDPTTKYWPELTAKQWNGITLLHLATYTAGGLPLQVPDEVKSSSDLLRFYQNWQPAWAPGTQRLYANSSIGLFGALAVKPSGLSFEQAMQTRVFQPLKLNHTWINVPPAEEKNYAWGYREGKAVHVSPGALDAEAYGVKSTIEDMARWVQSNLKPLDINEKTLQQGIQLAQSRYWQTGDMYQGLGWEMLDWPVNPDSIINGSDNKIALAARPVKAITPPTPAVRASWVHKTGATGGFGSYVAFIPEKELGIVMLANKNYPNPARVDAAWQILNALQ

Compound	increase of affinity for AmpC compared to non-carboxylate analog (4-carboxy derivative vs non-carboxylate analog (6–9, 1))	Ki [nM]
Cc1noc(C)c1S(=O)(=O)Nc1cc(B(O)O)ccc1C(=O)O [compound 12]	performed worse with respect to its analog	–
O=C(O)c1ccc(C(=O)Nc2cccc(S(=O)(=O)Nc3cc(B(O)O)ccc3C(=O)O)c2)cc1 [compound 13]	–	100
